Reference: patent US8143293B2, “Kinase inhibitors useful for the treatment of myleoprolific diseases and other proliferative diseases” (Deciphera Pharmaceuticals, LLC, priority 2007, dated 2012)

Assays:
[1] = biological target: T1, Abl kinase (SEQ ID NO: 1) (Homo sapiens, UniProt P00519); test: Abl kinase (SEQ ID NO:1) assay, pyruvate kinase/lactate dehydrogenase coupled; details: 2 h preincubation, ATP 500 μM; read-out: Biochemical IC50, Abl Enzyme Assay
T1 construct: purchased deCode Genetics
T1 sequence (P00519 with tags, fused parts or gaps): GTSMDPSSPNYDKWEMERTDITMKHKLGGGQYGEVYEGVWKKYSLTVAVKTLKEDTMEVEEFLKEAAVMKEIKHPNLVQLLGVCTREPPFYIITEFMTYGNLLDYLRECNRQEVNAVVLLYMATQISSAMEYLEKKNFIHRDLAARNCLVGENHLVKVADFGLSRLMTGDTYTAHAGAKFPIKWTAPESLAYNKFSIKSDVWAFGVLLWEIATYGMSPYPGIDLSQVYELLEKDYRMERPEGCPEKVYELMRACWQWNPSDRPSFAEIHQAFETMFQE
Procedure, shortened: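 ADP formation was coupled to pyruvate kinase/lactate dehydrogenase, and NADH loss at 340 nm was followed continuously. Compounds were preincubated 2 h at 30° C before 500 μM ATP, and rates from 1.0–2.0 h gave % inhibition and IC50.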

[2] = biological target: T2, C-Met kinase (SEQ ID NO:10) (Homo sapiens, UniProt P08581); test: C-Met kinase (SEQ ID NO:10) assay, pyruvate kinase/lactate dehydrogenase coupled; details: 0.5 h preincubation, ATP 100 μM; read-out: Biochemical IC50, c-Met Enzyme Assay
T2 construct: 956-1390, from Invitrogen, catalogue #PV3143; His6 (N-terminal leader MSYYHHHHHH... with TEV and thrombin sites) (N); purchased Invitrogen PV3143
T2 sequence (P08581 with tags, fused parts or gaps): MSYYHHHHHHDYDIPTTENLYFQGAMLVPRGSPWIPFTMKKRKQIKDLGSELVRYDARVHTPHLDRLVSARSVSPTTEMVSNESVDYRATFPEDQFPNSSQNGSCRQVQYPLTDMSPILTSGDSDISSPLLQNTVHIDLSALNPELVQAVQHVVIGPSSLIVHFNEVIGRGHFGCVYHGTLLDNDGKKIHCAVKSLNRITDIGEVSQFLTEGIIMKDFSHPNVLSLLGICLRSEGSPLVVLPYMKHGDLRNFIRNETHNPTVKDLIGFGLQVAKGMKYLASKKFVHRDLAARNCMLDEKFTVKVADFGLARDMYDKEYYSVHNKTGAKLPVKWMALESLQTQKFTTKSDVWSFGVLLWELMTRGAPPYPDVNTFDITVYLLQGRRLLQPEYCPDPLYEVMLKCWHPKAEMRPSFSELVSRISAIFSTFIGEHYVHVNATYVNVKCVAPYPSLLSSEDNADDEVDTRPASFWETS
Procedure, shortened: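 Human c-Met residues 956-1390 with polyE4Y substrate, pH 7.5; compounds preincubated 0.5 h at 22°C before 100 μM ATP start. ADP formation followed via pyruvate kinase/lactate dehydrogenase coupling as NADH loss at A340 for 2 h at 30°C; rate over 1.0–2.0 h, IC50 from percent-inhibition curves.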

Row | Compound | IC50 [1] | IC50 [2]
1 | Cn1cc(-c2cc(Oc3ccc(NC(=O)Nc4cncc(C(F)(F)F)c4)c(F)c3)ccn2)cn1 [Example 21, 1-(2-fluoro-4-(2-(1-methyl-1H-pyrazol-4-yl)pyridin-4-yloxy)phenyl)-3-(5-(trifluoromethyl)pyridin-3-yl)urea] | < 100 nM | < 1000 nM
2 | 1-(2-fluoro-4-(2-(1-methyl-1H-pyrazol-4-yl)pyridin-4-yloxy)phenyl)-3-(3-(1-methylcyclopentyl)isoxazol-5-yl)urea [Example 14] | < 100 nM | < 1000 nM
3 | Cn1cc(-c2cc(Oc3ccc(NC(=O)Nc4cnn(C(C)(C)C)c4)c(F)c3)ccn2)cn1 [Example 5, 1-(1-t-butyl-1H-pyrazol-4-yl)-3-(2-fluoro-4-(2-(1-methyl-1H-pyrazol-4-yl)pyridin-4-yloxy)phenyl)urea] | < 100 nM | < 10000 nM
4 | Cn1cc(-c2cc(Oc3ccc(NC(=O)Nc4cnn(C(C)(C)C)c4C(F)(F)F)c(F)c3)ccn2)cn1 [Example 9, 1-(1-tert-butyl-5-(trifluoromethyl)-1H-pyrazol-4-yl)-3-(2-fluoro-4-(2-(1-methyl-1H-pyrazol-4-yl)pyridin-4-yloxy)phenyl)urea] | < 100 nM | < 10000 nM
5 | Cn1cc(-c2cc(Oc3ccc(NC(=O)Nc4cnn(C5CCCC5)c4)c(F)c3)ccn2)cn1 [Example 15, 1-(1-cyclopentyl-1H-pyrazol-4-yl)-3-(2-fluoro-4-(2-(1-methyl-1H-pyrazol-4-yl)pyridin-4-yloxy)phenyl)urea] | < 100 nM | < 10000 nM
6 | Cn1cc(-c2cc(Oc3ccc(NC(=O)Nc4cc(C(C)(C)C)nn4C)c(F)c3)ccn2)cn1 [Example 2, 1-(3-t-butyl-1-methyl-1H-pyrazol-5-yl)-3-(2-fluoro-4-(2-(1-methyl-1H-pyrazol-4-yl)pyridin-4-yloxy)phenyl)urea] | < 100 nM | < 1000 nM
7 | Cn1cc(-c2cc(Oc3ccc(NC(=O)Nc4nnc(C(C)(C)C)s4)c(F)c3)ccn2)cn1 [Example 11, 1-(5-tert-butyl-1,3,4-thiadiazol-2-yl)-3-(2-fluoro-4-(2-(1-methyl-1H-pyrazol-4-yl)pyridin-4-yloxy)phenyl)urea] | < 100 nM | < 10000 nM
8 | Cn1cc(-c2cc(Oc3ccc(NC(=O)Nc4cncc(C(F)(F)F)c4)cc3)ccn2)cn1 [Example 6, 1-(4-(2-(1-methyl-1H-pyrazol-4-yl)pyridin-4-yloxy)phenyl)-3-(5-(trifluoromethyl)pyridin-3-yl)urea] | < 100 nM | < 10000 nM
9 | CC(C)c1cncc(NC(=O)Nc2ccc(Oc3ccnc(-c4cnn(C)c4)c3)cc2F)c1 [Example 22, 1-(2-fluoro-4-(2-(1-methyl-1H-pyrazol-4-yl)pyridin-4-yloxy)phenyl)-3-(5-isopropylpyridin-3-yl)urea] | < 100 nM | < 1000 nM
10 | Cn1cc(-c2cc(Oc3ccc(NC(=O)Nc4cnc(C(C)(C)C)nc4N4CCOCC4)c(F)c3)ccn2)cn1 [Example 41, 1-(2-tert-butyl-4-morpholinopyrimidin-5-yl)-3-(2-fluoro-4-(2-(1-methyl-1H-pyrazol-4-yl)pyridin-4-yloxy)phenyl)urea] | < 1000 nM | < 100000 nM
11 | Cn1cc(-c2cc(Oc3ccc(NC(=O)Nc4cc(C(F)(F)F)c[nH]c4=O)c(F)c3)ccn2)cn1 [Example 27, 1-(2-fluoro-4-(2-(1-methyl-1H-pyrazol-4-yl)pyridin-4-yloxy)phenyl)-3-(2-oxo-5-(trifluoromethyl)-1,2-dihydropyridin-3-yl)urea] | < 100 nM | < 1000 nM
12 | Cc1c(NC(=O)Nc2ccc(Oc3ccnc(-c4cnn(C)c4)c3)cc2F)cnn1C(C)(C)C [Example 10, 1-(1-tert-butyl-5-methyl-1H-pyrazol-4-yl)-3-(2-fluoro-4-(2-(1-methyl-1H-pyrazol-4-yl)pyridin-4-yloxy)phenyl)urea] | < 100 nM | < 10000 nM

Further lines, results first:

Row | IC50 [1] | IC50 [2] | Compound
13 | < 100 nM | < 10000 nM | Cc1oc(C(C)(C)C)cc1NC(=O)Nc1ccc(Oc2ccnc(-c3cnn(C)c3)c2)cc1F [Example 28, 1-(5-tert-butyl-2-methylfuran-3-yl)-3-(2-fluoro-4-(2-(1-methyl-1H-pyrazol-4-yl)pyridin-4-yloxy)phenyl)urea]
14 | < 100 nM | < 10000 nM | CN(C)CCn1nc(C(C)(C)C)cc1NC(=O)Nc1ccc(Oc2ccnc(-c3cnn(C)c3)c2)cc1F [Example 12, 1-(3-tert-butyl-1-(2-(dimethylamino)ethyl)-11H-pyrazol-5-yl)-3-(2-fluoro-4-(2-(1-methyl-1H-pyrazol-4-yl)pyridin-4-yloxy)phenyl)urea]
15 | < 100 nM | < 1000 nM | Cn1cc(-c2cc(Oc3ccc(NC(=O)Nc4cccc(C(F)(F)F)c4)c(F)c3)ccn2)cn1 [Example 3, 1-(2-fluoro-4-(2-(1-methyl-1H-pyrazol-4-yl)pyridin-4-yloxy)phenyl)-3-(3-(trifluoromethyl)phenyl)urea]
16 | < 100 nM | < 1000 nM | Cn1cc(-c2cc(Oc3ccc(NC(=O)Nc4cc(C(F)(F)F)cnc4-c4cnn(C)c4)c(F)c3)ccn2)cn1 [Example 42, 1-(2-fluoro-4-(2-(1-methyl-1H-pyrazol-4-yl)pyridin-4-yloxy)phenyl)-3-(2-(1-methyl-1H-pyrazol-4-yl)-5-(trifluoromethyl)pyridin-3-yl)urea]
17 | < 100 nM | < 1000 nM | Cn1cc(-c2cc(Oc3ccc(NC(=O)Nc4cc(C(C)(C)C)no4)c(F)c3)ccn2)cn1 [Example 1, 1-(3-t-butylisoxazol-5-yl)-3-(2-fluoro-4-(2-(1-methyl-1H-pyrazol-4-yl)pyridin-4-yloxy)phenyl)urea]
18 | < 100 nM | < 1000 nM | Cn1cc(-c2cc(Oc3ccc(NC(=O)Nc4cnn(C(C)(C)C)c4)c(F)c3F)ccn2)cn1 [Example 8, 1-(1-tert-butyl-1H-pyrazol-4-yl)-3-(2,3-difluoro-4-(2-(1-methyl-1H-pyrazol-4-yl)pyridin-4-yloxy)phenyl)urea]
19 | < 100 nM | < 100 nM | Cn1cc(-c2cc(Oc3ccc(NC(=O)Nc4cc(C(C)(C)C)no4)c(F)c3F)ccn2)cn1 [Example 25, 1-(3-tert-butylisoxazol-5-yl)-3-(2,3-difluoro-4-(2-(1-methyl-1H-pyrazol-4-yl)pyridin-4-yloxy)phenyl)urea]
